Assay results: patent publication US20240124417A1, “COMPOUNDS USEFUL AS IMMUNOMODULATORS” (Bristol-Myers Squibb Company, priority 2019, published 2024)

Each compound was assayed against T1, PD-1/PD-L1 (Homo sapiens, UniProt Q9NZQ7) (assay: PD-1/PD-L1 Homogenous Time-Resolved Fluorescence (HTRF) binding assay). Settings: PD-L1-His 10 nM, PD-1-Ig 20 nM.
T1 construct: TVMV protease site linker (C); made in house; host or cells: HEK293T cells
Outline: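 Inhibitors pre-incubated 15 min with PD-L1-His extracellular domain (10 nM final) in dPBS with 0.1% BSA and 0.05% Tween-20, then PD-1-Ig (20 nM final) added for a further 15 min. Read-out by HTRF with europium cryptate anti-Ig (1 nM) and APC anti-His (20 nM). Related pairs: PD-1-Ig/PD-L2-His (20/5 nM), CD80-His/PD-L1-Ig (100/10 nM).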

T1 sequence (Q9NZQ7 18-239): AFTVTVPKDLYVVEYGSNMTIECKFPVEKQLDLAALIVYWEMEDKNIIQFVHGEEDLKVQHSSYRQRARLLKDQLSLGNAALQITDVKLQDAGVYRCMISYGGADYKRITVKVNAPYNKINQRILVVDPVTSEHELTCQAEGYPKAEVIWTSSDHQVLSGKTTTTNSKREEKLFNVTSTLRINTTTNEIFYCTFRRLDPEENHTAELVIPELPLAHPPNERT

IC50 [nM] | Compound
2.6 | Cc1c(COc2cc(OCc3cncc(C#N)c3)c(CNCc3cncnc3)cc2Cl)cccc1-c1cccc(OCC2CCCN(C)C2)c1Cl (stereo not shown) [Example 2584, 5-((4-chloro-5-((2′-chloro-2-methyl-3′-((1-methylpiperidin-3-yl)methoxy)-[1,1′-biphenyl]-3-yl)methoxy)-2-(((pyrimidin-5-ylmethyl)amino)methyl)phenoxy)methyl)nicotinonitrile]
0.8 | Cc1c(COc2cc(OCc3cncc(C#N)c3)c(CNCc3cncnc3)cc2Cl)cccc1-c1cccc(OCCCN2CC[C@@H](O)C2)c1C [Example 2022, (R)-5-((4-chloro-5-((3′-(3-(3-hydroxypyrrolidin-1-yl)propoxy)-2,2′-dimethyl-[1,1′-biphenyl]-3-yl)methoxy)-2-(((pyrimidin-5-ylmethyl)amino)methyl)phenoxy)methyl)nicotinonitrile]
0.9 | Cc1nc(CNCc2cc(Cl)c(OCc3cccc(-c4cccc(OCC5CCCN(C)C5)c4Cl)c3C)cc2OCc2cncc(C#N)c2)no1 (stereo not shown) [Example 2603, 5-((4-chloro-5-((2′-chloro-2-methyl-3′-((1-methylpiperidin-3-yl)methoxy)-[1,1′-biphenyl]-3-yl)methoxy)-2-((((5-methyl-1,2,4-oxadiazol-3-yl)methyl)amino)methyl)phenoxy)methyl)nicotinonitrile]
1.9 | Cc1c(COc2cc(OCc3cncc(C#N)c3)c(CNCc3ncn[nH]3)cc2Cl)cccc1-c1cccc(OCC2CCCN(C)C2)c1Cl (stereo not shown) [Example 2578, 5-((2-((((1H-1,2,4-triazol-5-yl)methyl)amino)methyl)-4-chloro-5-((2′-chloro-2-methyl-3′-((1-methylpiperidin-3-yl)methoxy)-[1,1′-biphenyl]-3-yl)methoxy)phenoxy)methyl)nicotinonitrile]
258 | Cc1c(COc2cc(OCc3cncc(C#N)c3)c(CN(C)Cc3nc4ccccc4s3)cc2Cl)cccc1-c1cccc(OCCCN2CC[C@@H](O)C2)c1C [Example 2554, (R)-5-((2-(((benzo[d]thiazol-2-ylmethyl)(methyl)amino)methyl)-4-chloro-5-((3′-(3-(3-hydroxypyrrolidin-1-yl)propoxy)-2,2′-dimethyl-[1,1′-biphenyl]-3-yl)methoxy)phenoxy)methyl)nicotinonitrile]
2.8 | Cc1c(COc2cc(OCc3cncc(C#N)c3)c(CNCc3ncc[nH]3)cc2Cl)cccc1-c1cccc(OCCCN2CCC(O)(CO)CC2)c1Cl [Example 2011, 5-((2-((((1H-imidazol-2-yl)methyl)amino)methyl)-4-chloro-5-((2′-chloro-3′-(3-(4-hydroxy-4-(hydroxymethyl)piperidin-1-yl)propoxy)-2-methyl-[1,1′-biphenyl]-3-yl)methoxy)phenoxy)methyl)nicotinonitrile]
> 10000 | Cc1c(COc2cc(OCc3ncn(C(c4ccccc4)(c4ccccc4)c4ccccc4)c3C)c(CNCc3ccnc(C#N)n3)cc2Cl)cccc1-c1cccc(OCCCN2CC[C@@H](O)C2)c1C [Example 2043, (R)-4-(((5-chloro-4-((3′-(3-(3-hydroxypyrrolidin-1-yl)propoxy)-2,2′-dimethyl-[1,1′-biphenyl]-3-yl)methoxy)-2-((5-methyl-1-trityl-1H-imidazol-4-yl)methoxy)benzyl)amino)methyl)pyrimidine-2-carbonitrile]
0.4 | Cc1c(COc2cc(OCc3cncc(C#N)c3)c(CNCc3nn(C)c4ccccc34)cc2Cl)cccc1-c1cccc(OCCCN2CC[C@@H](O)C2)c1C [Example 2555, (R)-5-((4-chloro-5-((3′-(3-(3-hydroxypyrrolidin-1-yl)propoxy)-2,2′-dimethyl-[1,1′-biphenyl]-3-yl)methoxy)-2-((((1-methyl-1H-indazol-3-yl)methyl)amino)methyl)phenoxy)methyl)nicotinonitrile]
1.8 | Cc1ncsc1CCNCc1cc(Cl)c(OCc2cccc(-c3cccc(OCCCN4CC[C@@H](O)C4)c3C)c2C)cc1OCc1cncc(C#N)c1 [Example 2504, (R)-5-((4-chloro-5-((3′-(3-(3-hydroxypyrrolidin-1-yl)propoxy)-2,2′-dimethyl-[1,1′-biphenyl]-3-yl)methoxy)-2-(((2-(4-methylthiazol-5-yl)ethyl)amino)methyl)phenoxy)methyl)nicotinonitrile]
179 | Cc1c(COc2cc(OCc3cncc(C#N)c3)c(CNCc3cccnn3)cc2Cl)cccc1-c1cccc(OCC2CCCN(CCC(F)(F)F)C2)c1Cl (stereo not shown) [Example 2064, 5-((4-chloro-5-((2′-chloro-2-methyl-3′-((1-(3,3,3-trifluoropropyl)piperidin-3-yl)methoxy)-[1,1′-biphenyl]-3-yl)methoxy)-2-(((pyridazin-3-ylmethyl)amino)methyl)phenoxy)methyl)nicotinonitrile]
0.5 | CC(=O)NC1CCN(CCCOc2cccc(-c3cccc(COc4cc(OCc5cncc(C#N)c5)c(CN(C)Cc5nnn[nH]5)cc4Cl)c3C)c2C)CC1 [Example 1044, N-(1-(3-((3′-((4-((((1H-Tetrazol-5-yl)methyl)(methyl)amino)methyl)-2-chloro-5-((5-cyanopyridin-3-yl)methoxy)phenoxy)methyl)-2,2′-dimethyl-[1,1′-biphenyl]-3-yl)oxy)-propyl)piperidin-4-yl)acetamide]
2.5 | Cc1c(COc2cc(OCc3cncc(C#N)c3)c(CNCc3cnco3)cc2Cl)cccc1-c1cccc(OCCCN2CC[C@@H](O)C2)c1C [Example 2547, (R)-5-((4-chloro-5-((3′-(3-(3-hydroxypyrrolidin-1-yl)propoxy)-2,2′-dimethyl-[1,1′-biphenyl]-3-yl)methoxy)-2-(((oxazol-5-ylmethyl)amino)methyl)phenoxy)methyl)nicotinonitrile]
0.9 | Cc1c(COc2cc(OCc3cncc(C#N)c3)c(CN3CCc4c(ncn4C)C3)cc2Cl)cccc1-c1cccc(OCCCN2CC[C@@H](O)C2)c1C [Example 2502]
0.5 | CC(=O)NC1CCN(CCCOc2cccc(-c3cccc(COc4cc(OCc5cncc(C#N)c5)c(CN5CCCC(c6nnn[nH]6)C5)cc4Cl)c3C)c2C)CC1 (stereo not shown) [Example 1041, N-(1-(3-((3′-((4-((3-(1H-Tetrazol-5-yl)piperidin-1-yl)methyl)-2-chloro-5-((5-cyano-pyridin-3-yl)methoxy)phenoxy)methyl)-2,2′-dimethyl-[1,1′-biphenyl]-3-yl)oxy)propyl)-piperidin-4-yl)acetamide]
0.2 | Cc1c(COc2cc(OCc3cncc(C#N)c3)c(CN3CCCC(c4cnn(C)c4)C3)cc2Cl)cccc1-c1cccc(OCC2CCCN(C)C2)c1Cl (stereo not shown) [Example 1023, 5-((4-Chloro-5-((2′-chloro-2-methyl-3′-((1-methylpiperidin-3-yl)methoxy)-[1,1′-biphenyl]-3-yl)methoxy)-2-((3-(1-methyl-1H-pyrazol-4-yl)piperidin-1-yl)methyl)-phenoxy)methyl)nicotinonitrile]
0.7 | Cc1ncsc1CCNCc1cc(Cl)c(OCc2cccc(-c3cccc(OCC4CCCN(C)C4)c3Cl)c2C)cc1OCc1cncc(C#N)c1 (stereo not shown) [Example 2594, 5-((4-chloro-5-((2′-chloro-2-methyl-3′-((1-methylpiperidin-3-yl)methoxy)-[1,1′-biphenyl]-3-yl)methoxy)-2-(((2-(4-methylthiazol-5-yl)ethyl)amino)methyl)phenoxy)methyl)nicotinonitrile]
2 | Cc1c(COc2cc(OCc3cncnc3)c(CNCc3cn[nH]c3)cc2Cl)cccc1-c1cccc(OCCCN2CC[C@@H](O)C2)c1C [Example 2051, (R)-1-(3-((3′-((4-((((1H-pyrazol-4-yl)methyl)amino)methyl)-2-chloro-5-(pyrimidin-5-ylmethoxy)phenoxy)methyl)-2,2′-dimethyl-[1,1′-biphenyl]-3-yl)oxy)propyl)pyrrolidin-3-ol]
4.1 | Cc1c(COc2cc(OCc3cncc(C#N)c3)c(CNCc3ncc[nH]3)cc2Cl)cccc1-c1cccc(OCCCN2CC[C@@H](O)C2)c1C [Example 2004, (R)-5-((2-((((1H-imidazol-2-yl)methyl)amino)methyl)-4-chloro-5-((3′-(3-(3-hydroxypyrrolidin-1-yl)propoxy)-2,2′-dimethyl-[1,1′-biphenyl]-3-yl)methoxy)phenoxy)methyl)nicotinonitrile]
1.9 | Cc1c(COc2cc(OCc3cncc(C#N)c3)c(CNCCc3cc[nH]n3)cc2Cl)cccc1-c1cccc(OCCCN2CC[C@@H](O)C2)c1C [Example 2514, (R)-5-((2-(((2-(1H-pyrazol-3-yl)ethyl)amino)methyl)-4-chloro-5-((3′-(3-(3-hydroxypyrrolidin-1-yl)propoxy)-2,2′-dimethyl-[1,1′-biphenyl]-3-yl)methoxy)phenoxy)methyl)nicotinonitrile]
2.1 | CC(=O)NC1CCN(CCCOc2cccc(-c3cccc(COc4cc(OCc5cncc(C#N)c5)c(CN5CCCC5c5nnn[nH]5)cc4Cl)c3C)c2C)CC1 (stereo not shown) [Example 1051, N-(1-(3-((3′-((4-((2-(1H-Tetrazol-5-yl)pyrrolidin-1-yl)methyl)-2-chloro-5-((5-cyano-pyridin-3-yl)methoxy)phenoxy)methyl)-2,2′-dimethyl-[1,1′-biphenyl]-3-yl)oxy)propyl)-piperidin-4-yl)acetamide]
1.3 | Cc1c(COc2cc(OCc3cncc(C#N)c3)c(CN(C)CC(C)c3nnn[nH]3)cc2Cl)cccc1-c1cccc(OCCCNC[C@H](O)CO)c1Cl (stereo partly drawn) [Example 1035, 5-((2-(((2-(1H-Tetrazol-5-yl)propyl)(methyl)amino)methyl)-4-chloro-5-((2′-chloro-3′-(3-(((S)-2,3-dihydroxypropyl)amino)propoxy)-2-methyl-[1,1′-biphenyl]-3-yl)methoxy)-phenoxy)methyl)nicotinonitrile]
7.9 | Cc1c(COc2cc(OCc3cncc(C#N)c3)c(CN3CCc4cn[nH]c4C3)cc2Cl)cccc1-c1cccc(OCC2CCCN(C)C2)c1Cl (stereo not shown) [Example 2589, 5-((4-chloro-5-((2′-chloro-2-methyl-3′-((1-methylpiperidin-3-yl)methoxy)-[1,1′-biphenyl]-3-yl)methoxy)-2-((1,4,5,7-tetrahydro-6H-pyrazolo[3,4-c]pyridin-6-yl)methyl)phenoxy)methyl)nicotinonitrile]
